Assay results taken from publication PMC5640650, “NatD promotes lung cancer progression by preventing histone H4 serine phosphorylation to activate Slug expression” (Nature Communications, 2017).

Key:
Assay type in all cases: cell-based, human
H1299 cells = experiment: Transwell migration and invasion assay, H1299 cells; conditions: 12 h, knockdown vs Scr
Source text: Fig. 2 NatD is required for lung cancer cell migration and invasion in vitro. a Quantitative real-time PCR analysis of NatD mRNA levels normalized to GAPDH in scrambled control cells (Scr) and NatD-KD1 and NatD-KD2 cells. Results are shown as mean ± s.d. from three independent experiments. Two-tailed Student’s t-test was used. **P < 0.01 compared to Scr control. b Western blot analysis of NatD and Nt-ac-H4 protein levels in scrambled, NatD-KD1, and NatD-KD2 cells. GAPDH and histone H4 served as loading controls. […] Wound healing assay results are quantified in the histogram (right panel). […] Cell migration and invasion are expressed as a percentage of control (bottom panel). […]
Fig. 5 Regulation of Slug by NatD is acetyltransferase activity-dependent. a (left) In vitro acetylation assay showing the catalytic activity of NatDΔ and wild-type NatD (CPM, counts per minute). […] (bottom) Histones shown by Coomassie blue staining. d Quantitative real-time PCR analysis of mRNA levels of Slug, E-cadherin, N-cadherin, and Vimentin normalized to GAPDH in H1299 cells overexpressing NatDΔ or wild-type NatD. […] Cell migration and invasion are expressed as a percentage of control (bottom panel). […]
The in vitro viability of H1299 cells was assessed using the Cell Counting Kit-8 (CCK-8, Dojindo, Japan) according to the manufacturer’s protocol. […]

A549 cells = experiment: Transwell migration and invasion assay, A549 cells; conditions: vs Scr
Procedure: The in vitro viability of H1299 cells was assessed using the Cell Counting Kit-8 (CCK-8, Dojindo, Japan) according to the manufacturer’s protocol. Flow cytometric analysis of apoptosis was assessed by Annexin V and PI staining using the Annexin V-APC Apoptosis Detection Kit (KeyGEN BioTECH, China) according to the manufacturer’s guide. For cell cycle analysis, cells were harvested and fixed at 4 °C overnight with 70% ethanol. Cells were washed twice with PBS, and their DNA was stained using a Cell Cycle Detection Kit (KeyGEN BioTECH, China). The samples were analyzed by flow cytometry (Becton Dickinson, NJ, USA), and results were analyzed with FlowJo software according to the manufacturer’s instructions. For the wound healing assay, cells were plated to confluence in a 6-well plate, and the cell monolayer was scratched using a pipette tip. Representative photos were taken using a digital camera mounted on an inverted microscope (Olympus) at indicated times. Live cell imaging was performed using the HoloMonitor M4 time-lapse cytometer (Phase Holographic Imaging, Sweden). […]
of A549 cells. […] (bottom) Quantification of cell migration and invasion expressed as a percentage of Scr control; mean ± s.d. from three independent experiments; two-tailed Student’s t-test, **P<0.01 compared to Scr control. […]

NatD = experiment: Quantitative real-time PCR / western blot of NatD knockdown; conditions: H1299 cells; for NatD mRNA, remaining relative to scrambled control: stable lentiviral shRNA, qPCR normalized to GAPDH, three independent experiments; for NatD protein level: western blot, vs Scr
Source text: Fig. 2 NatD is required for lung cancer cell migration and invasion in vitro. a Quantitative real-time PCR analysis of NatD mRNA levels normalized to GAPDH in scrambled control cells (Scr) and NatD-KD1 and NatD-KD2 cells. Results are shown as mean ± s.d. from three independent experiments. Two-tailed Student’s t-test was used. **P < 0.01 compared to Scr control. b Western blot analysis of NatD and Nt-ac-H4 protein levels in scrambled, NatD-KD1, and NatD-KD2 cells. GAPDH and histone H4 served as loading controls. Blots are representative of three independent experiments. c Representative images from wound healing assay of scrambled, NatD-KD1, and NatD-KD2 cells from three independent experiments (left panels). Wound healing assay results are quantified in the histogram (right panel). Results are shown as mean ± s.d. from three independent experiments. Two-tailed Student’s t-test was used. **P < 0.01 compared to Scr control. d Representative images of the migration of scrambled, NatD-KD1, and NatD-KD2 cells in a time-lapse cell tracker migration assay from three independent experiments. Representative images of the migration (e) and invasion (f) of scramble, NatD-KD1, and NatD-KD2 cells with transwell assay from three independent experiments (top panel). Cell counts for the corresponding assays of at least four random microscope fields (×100 magnification). Cell migration and invasion are expressed as a percentage of control (bottom panel). Results are shown as mean ± s.d. from three independent experiments. Two-tailed Student’s t-test was used. **P < 0.01 compared to Scr control
The small interfering RNA (siRNA) target sequences for RNA interference of NatD were inserted into the XhoI/HpaI sites in the pLL3.7 lentiviral vector according to the manufacturer’s recommendations (American Type Culture Collection, USA). The oligonucleotides were:
Total RNA from tissue samples and cultured cells was extracted using TRIzol reagent (Invitrogen). cDNAs were synthesized with a HiScript 1st Strand cDNA Synthesis Kit (Vazyme Biotech, China). Quantitative RT-PCR was performed using a FastStart Universal SYBR Green Master (Roche) according to the manufacturer’s instructions in a Rotor-Gene 6000 (Corbett Research) in a final volume of 20 μl. Cycling conditions were 94 °C for 15 s, 60 °C for 30 s, and 72 °C for 30 s. Each reaction was performed in triplicate. The primer sequences for RT-PCR are listed in Supplementary Table 2 and Table 3.

Substance	migratory and invasive capabilities (transwell) (H1299 cells)	cell migration and invasion (transwell) (A549 cells)	NatD mRNA, remaining relative to scrambled control (NatD) [%]	NatD protein level (NatD)	NatD knockdown quality (NatD; KD2 vs KD1)
NatD-KD1: Human NatD shRNA KD1: 5′-GATGAAGAAGGTTATGTTA-3′, lentiviral (shRNA, lentiviral)	significantly reduced	inhibits cell migration and invasion	30	decreased	–
NatD-KD2: Human NatD shRNA KD2: 5′-GGTTGAATGTCTCCATTGA-3′, lentiviral (shRNA lentiviral)	significantly reduced	inhibits cell migration and invasion	30	decreased	somewhat better knockdown
